# Read-outs that look alike come from different tables or passages of the source.
# Tests used:
# HIV-2 protease = assay: HIV protease cleavage of nonapeptide (HPLC); assay type: biochemical; details: 0.5 μl of 10 μg/μl inhibitor in DMSO per 10 μl reaction; pH 6.5, room temperature; pentapeptide product relative to DMSO control; sampled at ca. 16 and 40 hr (time not given)
# Description: Activity Against HIV Protease
# The assay for proteolyic activity is a modified version of that previously described by Copeland et al., Gene Anal. Tech., 5:109-115 (1988). For each assay to be performed 2 microliters of protease solution (ca. 100 ng) is added to 3 μg of nonapeptide (Val-Ser-Gln-Asn-Tyr-Pro-Ile-Val-Gln-NH2) in 8 μl of 200 mM sodium phosphate, 1 M NaCl, 5% glycerol, 0.25% Nonidet-40, at pH 6.5. This affords a stock solution containing 10 μl per number of reactions. This stock is aliquoted out in 10 μl portions to which 0.5 μl of DMSO (a control is run with each set of assays to compensate for minor experimental variations) or a DMSO solution containing 10 μg/μl of an inhibitor, i.e., any one of the compounds of the present invention, is added. The reactions were incubated at room temperature and 4 μl portions were removed at ca. 16 and 40 hr. intervals. HPLC analysis was performed on a 4.6×250 mm Lichrosorb RP-18 column eluted with a gradient of 0-40% acetonitrile in water (containing 0.05% TFA) over 30 min monitoring absorbance at 206 nm. Progress of the enzymatic cleavage was followed by monitoring the appearance of the pentapeptide (Val-Ser-Gln-Asn-Tyr-OH) cleavage product. The activity is expressed as the amount of the pentapeptide (Val-Ser-Gln-Asn-Tyr-OH) observed relative to the control reaction for that set of assays.
# Inhibition of HIV-2 protease
# porcine Renin = biological target: T1, porcine Renin (Sus scrofa, UniProt A0A287APG1); assay: Porcine Renin cleavage of porcine tetradecapeptide (HPLC); assay type: biochemical; details: 0.5 μl of 50 μg/μl inhibitor in DMSO in 50 μl; pH 6.00, room temperature, 70 min; relative to uninhibited control
# T1 construct: purchased Sigma
# T1 sequence (A0A287APG1 24-407): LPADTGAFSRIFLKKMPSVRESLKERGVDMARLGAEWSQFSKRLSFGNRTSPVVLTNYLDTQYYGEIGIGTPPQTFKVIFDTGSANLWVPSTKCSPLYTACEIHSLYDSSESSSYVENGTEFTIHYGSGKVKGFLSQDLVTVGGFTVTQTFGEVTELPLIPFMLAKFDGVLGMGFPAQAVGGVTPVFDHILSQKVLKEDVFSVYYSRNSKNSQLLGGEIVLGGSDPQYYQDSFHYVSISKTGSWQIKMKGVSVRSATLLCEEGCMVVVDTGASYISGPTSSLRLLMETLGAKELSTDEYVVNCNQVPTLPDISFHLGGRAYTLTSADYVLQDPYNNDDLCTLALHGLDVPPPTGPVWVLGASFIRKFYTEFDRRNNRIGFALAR
# Text: Renin Activity: Porcine Renin Cleavage of Porcine Tetradecapeptide
# Proteolytic enzymes are ubiquitous in many living systems. Renin is an asparxyl protease found in mammals which is responsible for the regulation of blood pressure. Structural and functional similarities between Renin and retroviral proteases have been previously noted (Pearl, L. H., Taylor, W. R., (1987) Nature, 329, 351-354). Consequently, successful therapeutic inhibition of retroviral proteases depends on the ability of the inhibitor to inhibit the retroviral enzyme while having a greatly diminished effect on normally occurring enzymes like Renin. The failure to inhibit the desired enzyme selectively may have an adverse effect on normal biochemical functions. The similarity of Renin to retroviral proteases and its viral normal bodily function makes it an attractive system in which to examine inhibitory selectivity.
# Renin activity was determined by a method similar to that described above for the HIV protease. A solution containing 0.37 m unit (0.5 μl of stock solution containing 0.75 m unit/μl) of porcine Renin (Sigma) was added to 5 μg of porcine angiotensinogen in 50 μl of 0.1 M citrate-phosphate buffer (pH 6.00) containing 0.25% NP-40. A DMSO solution containing the inhibitor (0.5 μl of a 50 μg/μl solution) was added and the reaction was allowed to incubate at room temperature for 70 min. The entire mixture was analyzed by HPLC chromatographic analysis was perforemd on a 4.6×250 mm Lichrosorb RP-18 column eluting with a gradient of 0-50% acetonitrile in 0.02 M KH2 Po4 (pH 4.7) over 30 min monitoring absorbance at 206 nm. Appearance of both the tetrapeptide and the decapeptide products may be monitored under these conditions. Enzyme activity is expressed as the amount of tetrapeptide produced relative to an uninhibited control, and are summarized in Table 3 below.
# HIV1 IIIb = assay: microbe, parasite or virus in culture; assay type: cell-based; details: Human immunodeficiency virus 1, IIIB; for viability at 10 µg/mL: 10 ug/ml; for viability at 6.3 µg/mL: 6.3 ug/ml; for viability at 31.5 µg/mL: 31.5 ug/ml; for viability at 24.6 µg/mL: 24.6 ug/ml; for viability at 27.2 µg/mL: 27.2 ug/ml
# Outline: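 Human host cells infected with HIV1 IIIb (virus-producing H9 cells or cell-free virus) and incubated seven days with compound. Viable cells measured by XTT formazan absorbance; response expressed as % of uninfected controls against virus kill %. Some cultures redosed after 3 days.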
smiles,measurement,setting,value
"O=[N+]([O-])c1ccc(OCC2CO2)cc1 (stereo not drawn) [1,2-Epoxy-3-(p-nitrophenoxy)propane, reference compound]",Percent Control Cleavage of Nonapeptide HIV-1 Cleavage Site Fragment,HIV-2 protease,18%
same,Percent control (tetrapeptide produced),porcine Renin,106%
"CCCCCCCCC[C@H]1O[C@H]1C(=O)O [Example 21, (2R-cis)-3-Nonyloxiranecarboxylic Acid]",viability at 10 µg/mL,"HIV1 IIIb; 168 h, read-out: Antiviral Effect (viable cells as % of uninfected controls), run 8, source V (cell free virus), virus kill 23.0%",94%
same,viability at 6.3 µg/mL,"HIV1 IIIb; 168 h, read-out: Antiviral Effect (viable cells as % of uninfected controls), run 9, source V (cell free virus), virus kill 19.0%",25.7%
same,viability at 31.5 µg/mL,"HIV1 IIIb; 168 h, read-out: Antiviral Effect (viable cells as % of uninfected controls), run 10, source V (cell free virus), virus kill 53.0%",75.3%
same,viability at 24.6 µg/mL,"HIV1 IIIb; 168 h, read-out: Antiviral Effect (viable cells as % of uninfected controls), run 11, source V (cell free virus), virus kill 57.0%",64.3%
same,viability at 31.5 µg/mL,"HIV1 IIIb; 168 h, read-out: Antiviral Effect (viable cells as % of uninfected controls), run 12, source V (cell free virus), virus kill 27.0%",62%
same,viability at 24.6 µg/mL,"HIV1 IIIb; 168 h, read-out: Antiviral Effect (viable cells as % of uninfected controls), run 13, source V (cell free virus), virus kill 40.0%",88%
same,viability at 27.2 µg/mL,"HIV1 IIIb; 168 h, read-out: Antiviral Effect (viable cells as % of uninfected controls), run 14, source V (cell free virus), virus kill 18.0%",25.7%
same,viability at 27.2 µg/mL,"HIV1 IIIb; 168 h, read-out: Antiviral Effect (viable cells as % of uninfected controls), run 15*, source V (cell free virus), virus kill 25.0%, culture redosed with compound after 3 days",28.1%
same,viability at 1 µg/mL,"HIV1 IIIb; H9, 168 h, read-out: Antiviral Effect (viable cells as % of uninfected controls), run 1, 1 ug/ml, source C (virus producing H9 cells), virus kill 9.0%",18.9%
same,viability at 10 µg/mL,"HIV1 IIIb; H9, 168 h, read-out: Antiviral Effect (viable cells as % of uninfected controls), run 2, source C (virus producing H9 cells), virus kill 22.0%",27.3%
same,viability at 6.3 µg/mL,"HIV1 IIIb; H9, 168 h, read-out: Antiviral Effect (viable cells as % of uninfected controls), run 3, source C (virus producing H9 cells), virus kill 12.0%",16.6%
same,viability at 31.5 µg/mL,"HIV1 IIIb; H9, 168 h, read-out: Antiviral Effect (viable cells as % of uninfected controls), run 4, source C (virus producing H9 cells), virus kill 14.0%",19.6%
same,viability at 24.6 µg/mL,"HIV1 IIIb; H9, 168 h, read-out: Antiviral Effect (viable cells as % of uninfected controls), run 5, source C (virus producing H9 cells), virus kill 14.0%",21.6%
same,viability at 31.5 µg/mL,"HIV1 IIIb; H9, 168 h, read-out: Antiviral Effect (viable cells as % of uninfected controls), run 6, source C (virus producing H9 cells), virus kill 12.0%",10.7%
same,viability at 24.6 µg/mL,"HIV1 IIIb; H9, 168 h, read-out: Antiviral Effect (viable cells as % of uninfected controls), run 7, source C (virus producing H9 cells), virus kill 18.0%",13%
same,Percent control (tetrapeptide produced),porcine Renin,86%
"CCCCCCCCC[C@@H]1O[C@H]1C(=O)O [Example 35, (2R-trans)-3-Nonyloxiranecarboxylic Acid]",Percent Control Cleavage of Nonapeptide HIV-1 Cleavage Site Fragment,HIV-2 protease,77%
same,Percent control (tetrapeptide produced),porcine Renin,72%
"CCCCCCCCC[C@H]1O[C@@H]1C(=O)O [Example 36, (2S-trans)-3-Nonyloxiranecarboxylic acid]",Percent Control Cleavage of Nonapeptide HIV-1 Cleavage Site Fragment,HIV-2 protease,12%
same,Percent control (tetrapeptide produced),porcine Renin,12%
"CCCCCCCCCCC[C@H]1O[C@@H]1C(=O)O [Example 40, (2S-trans)-3-Undecyloxiranecarboxylic Acid]",Percent Control Cleavage of Nonapeptide HIV-1 Cleavage Site Fragment,HIV-2 protease,93%
same,Percent control (tetrapeptide produced),porcine Renin,71%
